Data on 1 compound can be found in US8088822B2, “Use of fenretinide or bioactive derivatives thereof and pharmaceutical compositions comprising the same” (priority 2008, dated 2012).

Data set [1] concerns normal hematopoietic CD34+ cells. Description: Apoptosis/viability of normal hematopoietic CD34+ cells. Format: cell-based, human. From the text:
(§1) Fresh bone marrow (BM) cells were obtained from 38 patients with CML and 5 non-leukemic donors, 25 AML, 17 ALL, and 8 normal specimens with informed consent according to the Declaration of Helsinki. Approval was obtained from Institutional Review Board at the School of Medicine in Shanghai Jiao Tong University. BM mononuclear cells were isolated by Ficoll density gradient centrifugation (Shanghai Second Reagent Factory, Shanghai, China). CD34^+ Cell were selected using EasySep® Human CD34 Positive Selection kit (Stem Cell Technologies, Vancouver, BC, Canada) according to the manufacturer's instructions. The purity of CD34 cells ranged between 92 and 98% in all samples detennined by flow cytometry. The CD34^+ cells were cultured in a serum-free medium (StemPro 34; Gibco BRL, Gaithersburg, Md.) supplemented with growth factors (PeproTech, London, United Kingdom) (20). The growth factors consisted of GM-CSF (200 pg/mL), G-CSF (1 ng/mL); SCF (200 pg/mL); LIF (50 pg/mL), MIP-1α (200 pg/mL) and IL-6 (1 ng/mL).
(§2) Primitive AML and CML subpopulations (CD34^+ cells) were identified using CD34-PE in combination with CD38-APC, and followed by double-labeling with 7AAD and Annexin V antibodies for apoptosis assessment. The CD34^+ cells were first stained with antibodies against the surface markers CD34-PE and CD38-APC (Beckman Coulter, Fullerton, Calif.) and incubated at room temperature for 15 minutes. Cells were then washed with cold PBS and resuspended in 200 μL annexin V 1×binding buffer (10 mM HEPES/NaOH, pH 7.4, 140 mM NaCl, 2.5 mM CaCl2), 5 μL AnnexinV-FITC (BD Phanningen, San Diego, Calif.) and 7-aminoactinomycin (7-AAD, 0.25 mg/mL) (Molecular Probes, Eugene, Oreg.). Subsequently, the samples were incubated at room temperature for 15 minutes and analyzed by flow cytometry.
Primary acute leukemia cells from specimens including AML and ALL are mostly quiescent, especially for the subpopulations of leukemic CD34^+ cells (Guan and Hogge, 2000). To verify if this quiescent leukemia cells are sensitive to fenretinide, we compared the effects of fenretinide on primary leukemia versus normal specimens during short-term suspension culture. CD34^+ cells were isolated from primary acute leukemia specimens, and subjected to DNA content analysis through propidium iodide staining and followed by flow cytometry. The majority of isolated CD34^+ cells from AML and ALL were in G0/G1 phase of the cell cycle, indicating the quiescent feature of leukemia CD34^+ cells (FIG. 4A). Then, apoptosis profiles of AML CD34^+ cells and normal CD34^+ cells were examined through annexin-V FITC and 7AAD double staining (FIG. 4B).

Another data set deals with U937. Kind of data set: Apoptosis in AML cell line U937. Conditions: U937, within 48 hours, alone or combined. Format: cell-based. As to the method:
2×10^5 cultured cells were used for evaluating apoptosis using an ApoAlert Annexin V-FITC Apoptosis Kit (BD Biosciences). Cells were washed once by PBS, resuspended in 200 μl Annexin-V binding buffer, and then stained with Annexin V-FITC 5 μl, PI 10 μl for 15 min at room temperature in the dark. Cells were subsequently analyzed by flow cytometry.
There are two observations that drive us in further exploring alternative therapeutic combinations. As illustrated in Example 6, proteasome inhibitors can potentate fenretinide-induced apoptosis in leukemia. […] The apoptosis rates were quite low when treated alone within 48 hours (nearly 5%), and the number doubled when treated by fenretinide and MG132.

Another data set relates to HL60 cells. Description: Mitochondrial transmembrane potential (MTP) assay, Rh123/PI, HL60 cells. Format: cell-based. Conditions: serum-deprived quiescent versus proliferating HL60 cells, fenretinide. On the procedure: HL60 cells were cultured in RPMI 1640 supplemented (i) with or (ii) without 10% fetal bovine serum to obtain proliferating and quiescent leukemia cells respectively. Serum-deprived quiescent leukemic cells and proliferating leukemic cells were then cultured in media containing 0.5% FBS, and treated with 1 μM and 2.5 μM fenretinide, and also with chemotherapeutics as controls, 20 μM idarubicin (IDA) and 5 μM cytarabine (Ara-C).
To examine the effects of fenretinide on proliferating and quiescent leukemia cells, HL60 cells were chosen as serum deprived quiescent leukemic cell model obtained when incubated in RPMI 1640 without serum for 48 h, with G0/G1 phase cells (being in quiescent state) accounting up to 59.9%. Serum-deprived quiescent leukemic cells and proliferating leukemic cells were then cultured in media containing 0.5% FBS, and treated with 1 μM and 2.5 μM fenretinide, and also with chemotherapeutics as controls, 20 μM idarubicin (IDA) and 5 μM cytarabine (Ara-C). […] Fenretinide induces intracellular production of ROS, lowers mitochondrial transmembrane potential (MTP), and eventually leads to apoptosis in a variety of malignancies. We measured MTP induced by fenretinide in proliferating and quiescent HL60 cells, as examined through rhodamine 123 and propidium iodide staining and followed by flow cytometry analysis. […] We further measured intracellular ROS abundance induced by fenretinide. […] After incubation with 1 μM and 2.5 μM fenretinide for 3 h, the ROS level of proliferating cells increased by 1.77 and 2.6 fold, respectively.

Data set [2] relates to CD34+CD38− CML stem cells (LSC). Kind of data set: Apoptosis (Annexin V/7AAD, FACS) of CML stem cells. Format: cell-based, human.
From the text: as §1, §2
It would be of significance to find out the subpopulations specifically targeted by fenretinide. We divided the CML patient specimens into mononuclear cells and CD34^+ cells. The CD34^+ CML cells are primitive cells including CML stem and progenitor cells. Upon treated with fenretinide, CD34^+ CML cells were further subdivided into CD34^+CD38^− enriched with CML stem cells and CD34^+CD38^+ with CML progenitor cells. After gating on primitive CML subfractions, 7AAD and Annexin V antibodies were utilized for apoptosis assessment by FACS. […] The difference of apoptosis rates between CD34^+CD38^+ and CD34^+CD38^− cells was significant (p<0.001). The effects of the fenretinide exposures on the leukemia stem cells (LSC) and normal hematopoietic stem cells (HSC) in the CD34^+CD38^− cells were shown in a representative specimen (FIG. 3B). The specimens in 5 CML patients had the similar effects on the LSC and in 5 non-leukemic donors had the similar patterns as that of nonnal HSC.

On to `CC1=C(/C=C/C(C)=C/C=C/C(C)=C/C(=O)Nc2ccc(O)cc2)C(C)(C)CCC1` [fenretinide, N-(4-hydroxyphenyl)retinamide], for which the “viability of normal hematopoietic CD34+ cells” value was 97.1% in data set [1] (5 μM fenretinide) and 58.1% in data set [1] (7.5 μM fenretinide). In data set [1] (from viability of normal CD34+ cells), the “safe dose (presumed)” value is reported as “below 5 μM”. The “response of normal hematopoietic CD34+ cells” value in data set [1] (short-term suspension culture) is listed as “relative resistant”. In addition, the apoptosis rate with U937 is reported as approximately 5%. Besides, the “mitochondrial transmembrane potential (MTP)” value in the data set with HL60 cells is listed as “more significant reduced MTP”. Moreover, the “apoptosis of CD34+CD38− cells” value is 60.58%±2.76% in data set [2] (2 μM fenretinide), 63.75%±8.49% in data set [2] (4 μM fenretinide) and 62.83%±9.72% in data set [2] (6 μM fenretinide). For the same compound, the “reduction of LSC in the CD34+CD38− cells” value in data set [2] (representative specimen) was 80.3%. The “apoptosis in the LSC (CML stem cells)” value in data set [2] (representative specimen, fenretinide alone or co-treatment with imatinib) came to 53.3%.
